Experimental data taken from patent US20210009613A1, “ARYLPHOSPHINE OXIDES FOR INHIBITING KINASE ACTIVITY” (Shenzhen TargetRx, Inc., priority 2017, published 2021).

Tests used:
[1] = tested on: Ba/F3 parental; assay: Cytotoxicity test (CellTiter-Glo), Ba/F3 parental; type: cell-based; details: Mus musculus, BaF3, 72 hours
Method: (§1) The in vitro anti-proliferative activity of the compounds of the present disclosure against three types of cells that are cultured in vitro was tested by CellTiter-Glo method.
(§2) Cell lines: Ba/F3 parental; Ba/F3 [EML4-ALK] (From WuXi PharmaTech) and Ba/F3 [EML4-ALK L1196M] (From WuXi PharmaTech); wherein, Ba/F3 parental was cultured in RPMI1640 medium containing 10 ng/ml IL-3, […], 100 U/ml penicillin, and 100 μg/ml streptomycin, Ba/F3 [EML4-ALK] and Ba/F3 [EML4-ALK L1196M] were cultured in RPMI1640 medium containing 10% fetal bovine serum, 100 U/ml penicillin, and 100 μg/ml streptomycin.
(§3) Reagents and materials: RPMI-1640 (GIBCO, Cat. No. A10491-01); fetal bovine serum (GIBCO, Cat. No. 10099141); 0.25% trypsin-EDTA (GIBCO, Cat. No. 25200); penicillin-streptomycin, liquid (GIBCO, Cat. No. 15140-122); DMSO (Sigma, Cat. No. D2650); CellTiter-Glo Test Kit (Promega, Cat. No. G7572), and 96-well plate (Corning, Cat. No. 3365).
(§4) Specific experimental procedures: • 1. The test compounds were dissolved in DMSO to make stock solutions and subjected to a series gradient dilution to give solutions with 10-fold working concentration. • 2. The cells in the logarithmic growth phase were diluted with the culture solution to adjust to the specific cell concentration, 90 μl of cell suspension was added to the 96-well plate to make the cell density reach the specified concentration. The plate was incubated in a incubator at 37° C., containing 5% carbon dioxide gas overnight. • 3. 10 μl drug solutions were added to each well of the 96-well plate inoculated with cells. 10 concentrations of the compounds were tested starting from the highest concentration of 20 μM with a 3-fold series gradient dilution in duplicate. • 4. After continuously cultured for 72 hours, the cells were detected by CellTiter-Glo for the cell viability. The dose-effect curve was made using GraphPad Prism software and IC50 was calculated.

[2] = molecular target: ALK [WT] (Homo sapiens, UniProt Q9UM73); assay: Kinase inhibition assay, ALK [WT]; type: biochemical
Sequence of ALK [WT] (Q9UM73 19-1620): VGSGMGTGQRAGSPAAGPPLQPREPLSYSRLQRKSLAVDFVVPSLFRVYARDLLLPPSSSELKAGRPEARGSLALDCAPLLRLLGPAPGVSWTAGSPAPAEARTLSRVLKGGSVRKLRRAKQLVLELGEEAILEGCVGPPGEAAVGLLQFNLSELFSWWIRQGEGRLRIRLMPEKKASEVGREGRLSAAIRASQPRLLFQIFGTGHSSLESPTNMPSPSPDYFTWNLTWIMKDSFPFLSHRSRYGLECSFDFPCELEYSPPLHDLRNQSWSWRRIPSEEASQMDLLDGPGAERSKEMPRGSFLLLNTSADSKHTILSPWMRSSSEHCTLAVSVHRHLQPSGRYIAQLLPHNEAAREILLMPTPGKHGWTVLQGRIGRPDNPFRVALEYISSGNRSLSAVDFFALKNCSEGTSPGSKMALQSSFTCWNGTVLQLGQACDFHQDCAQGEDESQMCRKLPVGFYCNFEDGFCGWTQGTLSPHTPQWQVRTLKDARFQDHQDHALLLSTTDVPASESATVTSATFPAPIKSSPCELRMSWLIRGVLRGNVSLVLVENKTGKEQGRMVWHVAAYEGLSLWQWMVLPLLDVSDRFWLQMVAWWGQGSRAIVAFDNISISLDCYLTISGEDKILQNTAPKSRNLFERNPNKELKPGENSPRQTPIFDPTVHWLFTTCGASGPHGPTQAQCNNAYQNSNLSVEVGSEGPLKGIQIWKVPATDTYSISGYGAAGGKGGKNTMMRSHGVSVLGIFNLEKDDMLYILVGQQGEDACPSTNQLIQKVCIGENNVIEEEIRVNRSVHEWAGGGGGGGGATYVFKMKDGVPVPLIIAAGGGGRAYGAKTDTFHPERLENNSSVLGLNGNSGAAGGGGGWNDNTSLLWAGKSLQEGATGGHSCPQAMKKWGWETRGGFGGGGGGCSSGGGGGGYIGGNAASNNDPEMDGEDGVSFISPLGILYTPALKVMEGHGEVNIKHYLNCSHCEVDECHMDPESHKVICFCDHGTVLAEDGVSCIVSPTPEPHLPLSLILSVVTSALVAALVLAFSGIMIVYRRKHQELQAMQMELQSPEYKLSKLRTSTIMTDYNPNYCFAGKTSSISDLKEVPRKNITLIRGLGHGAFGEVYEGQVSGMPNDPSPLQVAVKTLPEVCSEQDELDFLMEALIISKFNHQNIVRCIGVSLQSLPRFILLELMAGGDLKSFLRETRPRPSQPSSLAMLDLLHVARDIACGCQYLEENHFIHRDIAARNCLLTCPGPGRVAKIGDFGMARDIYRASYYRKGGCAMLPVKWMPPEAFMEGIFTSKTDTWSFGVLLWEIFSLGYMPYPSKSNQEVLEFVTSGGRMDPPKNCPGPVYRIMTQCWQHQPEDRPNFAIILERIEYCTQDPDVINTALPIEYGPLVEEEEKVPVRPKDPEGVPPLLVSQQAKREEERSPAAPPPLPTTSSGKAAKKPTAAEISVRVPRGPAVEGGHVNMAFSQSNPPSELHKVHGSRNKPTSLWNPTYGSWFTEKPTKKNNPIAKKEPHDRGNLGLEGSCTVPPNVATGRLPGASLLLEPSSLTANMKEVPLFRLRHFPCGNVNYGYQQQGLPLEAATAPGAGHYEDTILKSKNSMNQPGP
Method: (§5) Compound preparation: The test compounds were dissolved in DMSO to make 20 mM stock solutions. The compounds were diluted in DMSO to 0.1 mM (a dilution with 100 times the final concentration) before use, and a 3-fold series gradient dilution with 11 concentrations was made. Dilutions with 4 times of the final concentration were prepared by diluting with buffer when dosing.
(§6) Kinase assay: after preparing the buffer solution, the enzyme was mixed with pre-diluted compounds with different concentrations, and placed at room temperature for 30 minutes in duplicate. The corresponding substrate and ATP were added thereto and reacted at room temperature for 60 minutes (both a negative and a positive control were set). After the reaction, antibody was added for detection, and after incubation at room temperature for 60 minutes, Evnvision detection was carried out, and data was collected. Data was analyzed and fit according to XLfit5 software. IC50 was calculated by the following formula: (IC50=[(ABS test-ABS begin)/(ABS control-ABS begin)]×100).

[3] = tested on: Ba/F3 [EML4-ALK]; assay: Cytotoxicity test (CellTiter-Glo), Ba/F3 [EML4-ALK]; type: cell-based; details: ratio of Ba/F3 IC50 values
Method: as §1, §2, §3, §4

[4] = molecular target: T1, Ba/F3 [EML4-ALK] (Homo sapiens, UniProt Q9UM73); assay: as above; type: cell-based; details: 72 hours, CellTiter-Glo; read-out: IC50(nM) ALK (Ba/F3)
T1 construct: IC50(nM) ALK (Ba/F3); other: 72 hours, CellTiter-Glo; Ba/F3 [EML4-ALK]; fused on or other part: Q9HC35 (Echinoderm microtubule-associated protein-like 4)
T1 sequence (Q9UM73 whole entry, change not shown, the tested form may be a part): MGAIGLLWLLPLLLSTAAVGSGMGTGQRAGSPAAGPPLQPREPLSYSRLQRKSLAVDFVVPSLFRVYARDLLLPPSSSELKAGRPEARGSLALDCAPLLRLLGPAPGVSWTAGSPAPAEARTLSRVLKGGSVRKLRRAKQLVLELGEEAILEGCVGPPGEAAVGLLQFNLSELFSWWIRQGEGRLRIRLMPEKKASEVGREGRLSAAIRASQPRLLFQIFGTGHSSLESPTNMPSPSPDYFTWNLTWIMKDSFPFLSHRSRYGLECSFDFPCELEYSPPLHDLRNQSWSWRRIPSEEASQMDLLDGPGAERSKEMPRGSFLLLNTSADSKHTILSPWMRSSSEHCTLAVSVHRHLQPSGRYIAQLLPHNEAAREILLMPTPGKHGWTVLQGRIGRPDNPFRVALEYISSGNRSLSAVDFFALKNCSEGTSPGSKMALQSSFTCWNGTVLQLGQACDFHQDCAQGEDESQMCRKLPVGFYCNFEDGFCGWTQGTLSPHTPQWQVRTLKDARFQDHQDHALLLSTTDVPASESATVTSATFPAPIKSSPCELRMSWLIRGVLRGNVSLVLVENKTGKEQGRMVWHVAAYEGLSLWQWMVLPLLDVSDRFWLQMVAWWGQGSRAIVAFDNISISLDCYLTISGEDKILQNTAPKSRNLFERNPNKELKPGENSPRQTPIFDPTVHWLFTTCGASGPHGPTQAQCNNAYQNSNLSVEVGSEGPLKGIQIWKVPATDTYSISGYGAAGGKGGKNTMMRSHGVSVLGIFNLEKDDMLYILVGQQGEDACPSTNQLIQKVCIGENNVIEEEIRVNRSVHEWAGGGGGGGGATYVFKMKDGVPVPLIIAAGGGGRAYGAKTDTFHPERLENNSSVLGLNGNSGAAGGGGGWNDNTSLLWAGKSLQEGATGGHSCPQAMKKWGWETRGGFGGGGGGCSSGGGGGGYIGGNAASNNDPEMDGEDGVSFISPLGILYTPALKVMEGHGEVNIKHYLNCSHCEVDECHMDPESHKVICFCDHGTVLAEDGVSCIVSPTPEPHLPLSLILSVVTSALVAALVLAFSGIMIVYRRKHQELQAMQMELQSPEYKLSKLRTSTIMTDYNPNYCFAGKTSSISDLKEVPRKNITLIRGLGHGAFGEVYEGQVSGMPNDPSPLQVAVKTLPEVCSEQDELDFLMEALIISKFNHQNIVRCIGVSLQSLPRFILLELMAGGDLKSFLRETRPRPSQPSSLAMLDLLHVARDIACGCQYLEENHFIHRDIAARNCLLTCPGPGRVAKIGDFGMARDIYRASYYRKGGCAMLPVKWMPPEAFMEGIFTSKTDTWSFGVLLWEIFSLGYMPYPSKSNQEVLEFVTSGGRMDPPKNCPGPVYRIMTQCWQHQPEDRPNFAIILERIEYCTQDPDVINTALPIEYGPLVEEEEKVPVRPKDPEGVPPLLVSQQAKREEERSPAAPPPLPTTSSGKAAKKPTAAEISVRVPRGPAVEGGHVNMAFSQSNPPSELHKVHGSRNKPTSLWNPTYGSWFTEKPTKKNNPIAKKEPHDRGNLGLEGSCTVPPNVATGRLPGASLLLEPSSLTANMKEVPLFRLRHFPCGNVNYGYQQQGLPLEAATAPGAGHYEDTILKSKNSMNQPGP
Method: as §1, §2, §3, §4

[5] = molecular target: ALK [L1196M] (Homo sapiens, UniProt Q9UM73, L1196M); assay: Kinase inhibition assay, ALK [L1196M]; type: biochemical
Sequence of ALK [L1196M] (Q9UM73 19-1620 L1196M): as the sequence (Q9UM73 19-1620) above, with L1178M counted along it
Method: as §5, §6

[6] = tested on: Ba/F3 [EML4-ALK L1196M]; assay: Cytotoxicity test (CellTiter-Glo), Ba/F3 [EML4-ALK L1196M]; type: cell-based; details: ratio of Ba/F3 IC50 values
Method: as §1, §2, §3, §4

[7] = molecular target: T2, Ba/F3 [EML4-ALK L1196M] (Homo sapiens, UniProt Q9UM73, L1196M, cells depend on it); assay: as above; type: cell-based; details: 72 hours, CellTiter-Glo; read-out: IC50(nM) ALK[L1196M] (Ba/F3)
T2 construct: IC50(nM) ALK[L1196M]; (Ba/F3); other: 72 hours, CellTiter-Glo; Ba/F3 [EML4-ALK L1196M]; fused on or other part: Q9HC35 (Echinoderm microtubule-associated protein-like 4)
T2 sequence (Q9UM73 whole entry L1196M, the tested form may be a part): as the sequence (Q9UM73 whole entry, change not shown, the tested form may be a part) above, with L1196M counted along it
Method: as §1, §2, §3, §4

IC50 [2] | IC50 [5] | Compound | IC50 [1] | Selectivity parental/ALK [3] | GI50 [4] | Selectivity parental/ALK[L1196M] [6] | GI50 [7]
≤ 5 nM | 5 to 10 nM | COc1nc(N2CCC(N(C)C)CC2)ccc1Nc1ncc(Cl)c(Nc2ccccc2P(C)(C)=O)n1 [Example 1, (2-((5-chloro-2-((6-(4-(dimethylamino)piperidin-1-yl)-2-methoxypyridin-3-)amino)pyrimidin-4-yl)amino)phenyl)dimethylphosphine oxide] | ≥ 1000 nM | 50~100 | ≤ 50 nM | 0~50 | 50 to 100 nM
≤ 5 nM | ≤ 5 nM | COc1nc(N2CCN(C)CC2)ccc1Nc1ncc(Cl)c(Nc2ccccc2P(C)(C)=O)n1 [Example 2, (2-((5-chloro-2-((2-methoxy-6-(4-methylpiperazin-1-yl)pyridin-3-yl)amino)pyrimidin-4-yl)amino)phenyl)dimethylphosphine oxide] | ≥ 1000 nM | 50~100 | ≤ 50 nM | 0~50 | 50 to 100 nM
≤ 5 nM | 5 to 10 nM | COc1nc(N(C)CCN(C)C)ccc1Nc1ncc(Cl)c(Nc2ccccc2P(C)(C)=O)n1 [Example 3, (2-((5-chloro-2-((6-((2-(dimethylamino)ethyl)(methyl)amino)-2-methoxypyridin-3-yl)amino)pyrimidin-4-yl)amino)phenyl)dimethylphosphine oxide] | ≥ 1000 nM | 100~200 | ≤ 50 nM | 50~100 | 50 to 100 nM
5 to 10 nM | 5 to 10 nM | COc1nc(N2CCC(N3CCN(C)CC3)CC2)ccc1Nc1ncc(Cl)c(Nc2ccccc2P(C)(C)=O)n1 [Example 4, (2-((5-chloro-2-((2-methoxy-6-(4-(4-methylpiperazin-1-yl)piperidin-1-yl)pyridin-3-yl)amino)pyrimidin-4-yl)amino)phenyl)dimethylphosphine oxide] | ≥ 1000 nM | 50~100 | ≤ 50 nM | 0~50 | 50 to 100 nM
5 to 10 nM | ≤ 5 nM | CC(C)Oc1nc(N2CCC(N(C)C)CC2)ccc1Nc1ncc(Cl)c(Nc2ccccc2P(C)(C)=O)n1 [Example 5, (2-((5-chloro-2-((6-(4-(dimethyaminono)piperidin-1-yl)-2-isopropoxypyridin-3-yl)amino)pyrimidin-4-yl)amino)phenyl)dimethylphosphine oxide] | ≥ 1000 nM | 100~200 | ≤ 50 nM | 50~100 | 50 to 100 nM
5 to 10 nM | ≤ 5 nM | CC(C)Oc1nc(N2CCN(C)CC2)ccc1Nc1ncc(Cl)c(Nc2ccccc2P(C)(C)=O)n1 [Example 6, (2-((5-chloro-2-((2-isopropoxy-6-(4-methylpiperazin-1-yl)pyridin-3-yl)amino)pyrimidin-4-yl)amino)phenyl)dimethylphosphine oxide] | ≥ 1000 nM | 200~400 | ≤ 50 nM | 50~100 | 100 to 400 nM
10 to 50 nM | 5 to 10 nM | CC(C)Oc1nc(N(C)CCN(C)C)ccc1Nc1ncc(Cl)c(Nc2ccccc2P(C)(C)=O)n1 [Example 7, (2-((5-chloro-2-((6-((2-(dimethylamino)ethyl)(methyl)amino)-2-isopropoxypyridin-3-yl)amino)pyrimidin-4-yl)amino)phenyl)dimethylphosphine oxide] | ≥ 1000 nM | 200~400 | ≤ 50 nM | 50~100 | 50 to 100 nM
5 to 10 nM | 5 to 10 nM | CC(C)Oc1nc(N2CCC(N3CCN(C)CC3)CC2)ccc1Nc1ncc(Cl)c(Nc2ccccc2P(C)(C)=O)n1 [Example 8, (2-((5-chloro-2-((2-isopropoxy-6-(4-(4-methylpiperazin-1-yl)piperidin-1-yl)pyridin-3-yl)amino)pyrimidin-4-yl)amino)phenyl)dimethyl phosphine oxide] | ≥ 1000 nM | 200~400 | ≤ 50 nM | 50~100 | 100 to 400 nM
≤ 5 nM | 5 to 10 nM | CN(C)C1CCN(c2ccc(Nc3ncc(Cl)c(Nc4ccccc4P(C)(C)=O)n3)c(OCC(F)(F)F)n2)CC1 [Example 9, (2-((5-chloro-2-((6-(4-(dimethyaminono)piperidin-1-yl)-2-(2,2,2-trifluoroethoxy)pyridin-3-yl)amino)pyrimidin-4-yl)amino)phenyl)dimethylphosphine oxide] | ≥ 1000 nM | 200~400 | ≤ 50 nM | 50~100 | 50 to 100 nM
≤ 5 nM | 5 to 10 nM | CN1CCN(c2ccc(Nc3ncc(Cl)c(Nc4ccccc4P(C)(C)=O)n3)c(OCC(F)(F)F)n2)CC1 [Example 10, (2-((5-chloro-2-((6-(4-methylpiperazin-1-yl)-2-(2,2,2-trifluoroethoxy)pyridin-3-yl)amino)pyrimidin-4-yl)amino)phenyl)dimethylphosphine oxide] | ≥ 1000 nM | 100~200 | ≤ 50 nM | 50~100 | 100 to 400 nM
≤ 5 nM | 10 to 50 nM | CN(C)CCN(C)c1ccc(Nc2ncc(Cl)c(Nc3ccccc3P(C)(C)=O)n2)c(OCC(F)(F)F)n1 [Example 11, (2-((5-chloro-2-((6-((2-(dimethylamino)ethyl)(methyl)amino)-2-(2,2,2-trifluoroethoxy)pyridin-3-yl)amino)pyrimidin-4-yl)amino)phenyl)dimethylphosphine oxide] | ≥ 1000 nM | 100~200 | 50 to 100 nM | 50~100 | 100 to 400 nM
5 to 10 nM | 10 to 50 nM | CN1CCN(C2CCN(c3ccc(Nc4ncc(Cl)c(Nc5ccccc5P(C)(C)=O)n4)c(OCC(F)(F)F)n3)CC2)CC1 [Example 12, (2-((5-chloro-2-((6-(4-(4-methylpiperazin-1-yl)piperidin-1-yl)-2-(2,2,2-trifluoroethoxy)pyridin-3-yl)amino)pyrimidin-4-yl)amino)phenyl)dimethylphosphine oxide] | ≥ 1000 nM | 111.30 | ≤ 50 nM | 0~50 | 50 to 100 nM
5 to 10 nM | ≤ 5 nM | COc1nc(N2CCC(N(C)C)CC2)ccc1Nc1nc(Nc2ccccc2P(C)(C)=O)c2cc[nH]c2n1 [Example 13, (2-((2-((6-(4-(dimethylamino)piperidin-1-yl)-2-methoxypyridin-3-yl)amino)-7H-pyrrolo [2,3-d]pyrimidin-4-yl)amino)phenyl)dimethylphosphine oxide] | 400 to 1000 nM | 0~50 | ≤ 50 nM | 0~50 | 50 to 100 nM
